{
  "source": "patent US9382295B2",
  "about": "“Cyclic depsipeptide compounds and their uses” (Cypralis Limited, priority 2012, dated 2016)",
  "key": {"[1]": {"target": "cyclophilin D (Cyp D) (Homo sapiens, UniProt P30405)", "sequence (P30405 30-207)": "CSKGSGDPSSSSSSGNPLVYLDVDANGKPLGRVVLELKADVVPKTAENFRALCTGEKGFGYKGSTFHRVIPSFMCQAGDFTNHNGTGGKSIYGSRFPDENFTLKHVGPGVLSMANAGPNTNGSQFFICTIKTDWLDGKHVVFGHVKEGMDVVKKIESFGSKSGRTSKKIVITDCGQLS", "experiment": "Protease-free PPIase assay, cyclophilin D", "type": "biochemical", "method_in_brief": "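Cis-trans isomerization of a succinimide-peptide substrate (60 µM final) by 2 nM enzyme was followed at 330 nm in 35 mM HEPES pH 7.8 with 50 µM DTT, stirred at 10.0 °C, DMSO ≤0.5%. First-order rate constants minus background were fitted against inhibitor concentration to give Ki.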"}, "[2]": {"target": "T1, calcineurin/cyclophilin A (Homo sapiens, UniProt P62937+P63098+Q08209)", "T1 construct": "purchased Enzo Life Sciences (calcineurin, calmodulin); Sigma (CypA) BML-AK804; C3805", "T1 sequence (P63098 whole entry, other chains not shown)": "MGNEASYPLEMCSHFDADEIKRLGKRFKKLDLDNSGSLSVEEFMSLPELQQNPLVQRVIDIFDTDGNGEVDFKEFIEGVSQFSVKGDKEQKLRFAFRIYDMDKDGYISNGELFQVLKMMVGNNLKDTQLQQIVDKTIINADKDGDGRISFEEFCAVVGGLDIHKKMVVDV", "T1 sequence (P62937 whole entry, other chains not shown)": "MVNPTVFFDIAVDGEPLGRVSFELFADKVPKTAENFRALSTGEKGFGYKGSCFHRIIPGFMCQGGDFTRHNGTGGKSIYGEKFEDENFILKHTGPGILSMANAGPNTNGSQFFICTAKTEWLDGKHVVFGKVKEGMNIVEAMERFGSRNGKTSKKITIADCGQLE", "experiment": "Calcineurin phosphatase (CaN) assay in the presence of Cyp A", "type": "biochemical", "conditions": "inhibitor in 1:1 complex with Cyp A; read-out: CaN + CypA (IC50 in the calcineurin/cyclophilin A assay)", "text": "**Calcineurin Phosphatase (CaN) Assay The calcineurin phosphatase assay is a means for estimating the immunosuppressive potential of a test compound. Calcineurin is a serine-threonine protein phosphatase that on activation dephosphorylates members of the nuclear factor of activated T cells (NFAT), which are important in T lymphocyte activation. […] To investigate the immunosuppressive potential of exemplary compounds of Formula 1, which are novel cycloundecadepsipeptide compounds, their ability to inhibit calcineurin activity was measured in the presence of Cyp A. The CaN assay kit used is based on a colorimetric assay for measuring calcineurin phosphatase activity, and it is commercially available (Enzo Life Sciences and Calbiochem). Calmodulin is also required for calcineurin activity and RH phosphopeptide is used as an efficient peptide substrate for calcineurin. […] The detection of free phosphate released is based on the classic Malachite green assay. Enzo Life Sciences CaN Assay Kit: BML-AK804 2× assay buffer: 100 mM Tris, pH7.5, 200 mM NaCl, 12 mM MgCl2, 1 mM DTT, 0.05% NP-40, 1 mM CaCl2 Calmodulin (Human, Recombinant): was thawed on ice, diluted 1:50 with 2× assay buffer, and then stored on ice. Calcineurin: was thawed quickly, stored on ice immediately, diluted 1:12.5 with 1× assay buffer, and then stored on ice. R-II Substrate: 915 μL ultrapure water (UPW) was added to the 1.5 mg vial substrate to give a final concentration of 0.75 mM. Inhibitors: 2.5 mM inhibitor in 100% DMSO. Cyp A: recombinant human CypA (Sigma C3805), 1 mg/ml; Recombinant 6-his tagged CypA prepared by the Univ. of Edinburgh was also used. […] Inhibitor dilutions: inhibitor compounds were diluted in UPW in polypropylene low-binding 96 well plates at 5x the final assay concentration. For samples ‘without Cyp A’, a 4-point dilution series of the inhibitor was prepared in duplicate to obtain a final assay concentration of 10, 1, 0.1 and 0.01 μM. […] Cs A inhibitor controls were also prepared to obtain a final concentration of 10 μM Cs A with and without 10 μM Cyp A. Assay Setup: using the half area 96 well plates supplied with the kit, 10 μl UPW was added to duplicate wells to provide the non-inhibited control. 10 μl of the inhibitor or the inhibitor/Cyp A complex was added to the appropriate sample wells. 25 μl of the 2× assay buffer with CaM was added to all wells, then 5 μl of CaN was added to all wells (40 U per well final concentration) except duplicate ‘no calcineurin blank’ wells to which 5 μL 1× assay buffer was added. […] The reaction was started by the addition of 10 μl RII-peptide (0.15 mM final concentration). The reaction was allowed to proceed at 30° C. for a time period in which the reaction is linear for about 60 minutes. The reaction was then terminated by adding 100 μl of the Malachite Green reagent. […] The data were analyzed by subtracting ‘no Calcineurin blank’ from all the absorbance readings and plotting the background corrected absorbances against Log10 inhibitor concentration. A sigmoidal-dose response curve was fitted to the data using GraphPad Prism Software. […] It exerts its immunosuppressive activity by binding to cyclophilin A to form a complex, which then binds to calcineurin and thereby inhibits calcineurin activity."}, "[3]": {"target": "T2, cyclophilin A (Cyp A) (Homo sapiens, UniProt P62937)", "T2 construct": "purchased Sigma C3805", "T2 sequence (P62937 whole entry)": "as the sequence (P62937 whole entry, other chains not shown) above", "experiment": "Protease-free PPIase assay, cyclophilin A", "type": "biochemical", "method_in_brief": "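Protease-free cis-trans isomerisation: 2 nM recombinant human cyclophilin A with 60 μM succinimide-peptide substrate in 35 mM HEPES pH 7.8 plus DTT, at 10.0 °C, max 0.5% DMSO. Absorbance at 330 nm was fitted to first-order kinetics, background subtracted, and catalytic rates versus inhibitor concentration gave Ki.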"}, "[4]": {"experiment": "Water solubility assay (pH 7.8 buffer)", "type": "physicochemical", "method_in_brief": "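DMSO stocks were diluted into 35 mM HEPES pH 7.8 to final 0–100 μM with 1% DMSO, in triplicate. Plates were shaken 18 h at 25 °C, then precipitation was detected as increased absorbance at 650 nm. Values give the concentration (μM) at which the compound remains in solution.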"}, "[5]": {"conditions": "protease-free PPIase assay, class symbols, read-out: CypD Ki"}, "[6]": {"conditions": "protease-free PPIase assay, class symbols, read-out: CypA Ki"}, "[7]": {"conditions": "35 mM HEPES buffer, 35 mM HEPES pH 7.8, 1% DMSO, 25° C., 18 h, concentration at which compound remains in solution, read-out: Solubility"}},
  "note": "Like-named read-outs stand apart in the source and are kept apart here. Numbered stars: 1 amine (or outer) side, 2 acyl side, 3 side chain; on linkers, the order of the positions; unused ones are H or OH. Square brackets hold non-standard residues; d marks the D form. Peptide text beside a SMILES is read from it. X28 = C[C@H](CCN1CCC(c2ccccc2)CC1)[C@@H](O)[C@H](C(=O)[*:2])N(C)[*:1]; X22 = C[C@H](Cc1nc2ccccc2[nH]1)[C@@H](O)[C@H](C(=O)[*:2])N(C)[*:1]; X29 = C[C@H](CCN(C)Cc1ccccn1)[C@@H](O)[C@H](C(=O)[*:2])N(C)[*:1]; d(aThr) = C[C@@H](O)[C@@H](N)C(=O)O; NMeL = CN[C@@H](CC(C)C)C(=O)O; dNMeL = CN[C@H](CC(C)C)C(=O)O; dNMeV = CN[C@@H](C(=O)O)C(C)C; Hiv = CC(C)[C@H](O)C(=O)O; Sar = CNCC(=O)O",
  "data": [
    {"molecule": "C/C=C/C[C@@H](C)[C@@H](O)[C@@H]1C(=O)N[C@H]([C@@H](C)O)C(=O)N(C)CC(=O)N(C)[C@@H](CC(C)C)C(=O)N[C@H](CC(C)C)C(=O)N(C)[C@H](CC(C)C)C(=O)N[C@H](C)C(=O)O[C@@H](C(C)C)C(=O)N(C)[C@H](CC(C)C)C(=O)N[C@H](CC(C)C)C(=O)N(C)[C@H](C(C)C)C(=O)N1C", "note": "[Example 1, Cyclo-(MeBmt-Thr-Sar-MeLeu-Leu-MeLeu-Ala-D-Hiv-MeLeu-Leu-MeVal), reference compound]", "values": [
      {"measurement": "Ki", "setting": "[1]", "value": 3.2, "unit": "nM"},
      {"measurement": "IC50", "setting": "[2]", "value": 70, "unit": "nM"},
      {"measurement": "Ki", "setting": "[3]", "value": 1.7, "unit": "nM"},
      {"measurement": "solubility at 18 h", "setting": "[4]; pH 7.8", "value": "10 to 25", "unit": "µM"}
    ]},
    {"molecule": "CC(C)C[C@@H]1C(=O)N[C@H](CC(C)C)C(=O)N(C)[C@H](C(C)C)C(=O)N(C)[C@H]([C@H](O)[C@H](C)CCN(C)Cc2ccccn2)C(=O)N[C@H]([C@@H](C)O)C(=O)N(C)CC(=O)N(C)[C@@H](CC(C)C)C(=O)N[C@H](CC(C)C)C(=O)N(C)[C@H](CC(C)C)C(=O)N[C@H](C)C(=O)O[C@@H](C(C)C)C(=O)N1C", "note": "[Example 31, cyclo-[(3R,4R,5S)-4-(hydroxy)-3-methyl-5-(methylamino)-1-N-(methyl-pyridin-2-ylmethyl-amino)-hexanoic acid-Thr-Sar-MeLeu-Leu-MeLeu-Ala-D-Hiv-MeLeu-Leu-MeVal]] (cyclo([Hiv][dNMeL][dL][dNMeV][X29][d(aThr)][Sar][NMeL][dL][dNMeL][dA]))", "values": [
      {"measurement": "Ki", "setting": "[1]; [5]", "value": "1 to 25", "unit": "nM"},
      {"measurement": "Ki", "setting": "[3]; [6]", "value": "25 to 100", "unit": "nM"},
      {"measurement": "solubility at 18 h", "setting": "[4]; [7]", "value": "50 to 75", "unit": "µM"}
    ]},
    {"molecule": "CC(C)C[C@@H]1C(=O)N[C@H](CC(C)C)C(=O)N(C)[C@H](C(C)C)C(=O)N(C)[C@H]([C@H](O)[C@H](C)Cc2nc3ccccc3[nH]2)C(=O)N[C@H]([C@@H](C)O)C(=O)N(C)CC(=O)N(C)[C@@H](CC(C)C)C(=O)N[C@H](CC(C)C)C(=O)N(C)[C@H](CC(C)C)C(=O)N[C@H](C)C(=O)O[C@@H](C(C)C)C(=O)N1C", "note": "[Example 33, cyclo-[(2R,3R,4S)-1-(1H-benzoimidazol-2-yl)-2-methyl-4-methylamino-3-hydroxy-pentanoic acid-Thr-Sar-MeLeu-Leu-MeLeu-Ala-D-Hiv-MeLeu-Leu-MeVal]] (cyclo([Hiv][dNMeL][dL][dNMeV][X22][d(aThr)][Sar][NMeL][dL][dNMeL][dA]))", "values": [
      {"measurement": "Ki", "setting": "[1]", "value": "1 to 25", "unit": "nM"},
      {"measurement": "Ki", "setting": "[3]", "value": "1 to 25", "unit": "nM"},
      {"measurement": "solubility at 18 h", "setting": "[4]; pH 7.8", "value": "25 to 50", "unit": "µM"}
    ]},
    {"molecule": "CC(C)C[C@@H]1C(=O)N[C@H](CC(C)C)C(=O)N(C)[C@H](C(C)C)C(=O)N(C)[C@H]([C@H](O)[C@H](C)CCN2CCC(c3ccccc3)CC2)C(=O)N[C@H]([C@@H](C)O)C(=O)N(C)CC(=O)N(C)[C@@H](CC(C)C)C(=O)N[C@H](CC(C)C)C(=O)N(C)[C@H](CC(C)C)C(=O)N[C@H](C)C(=O)O[C@@H](C(C)C)C(=O)N1C", "note": "[Example 34, cyclo-[(3R,4R,5S)-4-(hydroxy)-3-methyl-5-(methylamino)-1-(4-phenyl-1-piperidyl)-hexanoic acid-Thr-Sar-MeLeu-Leu-MeLeu-Ala-D-Hiv-MeLeu-Leu-MeVal]] (cyclo([Hiv][dNMeL][dL][dNMeV][X28][d(aThr)][Sar][NMeL][dL][dNMeL][dA]))", "values": [
      {"measurement": "Ki", "setting": "[1]; [5]", "value": "1 to 25", "unit": "nM"},
      {"measurement": "Ki", "setting": "[3]; [6]", "value": "1 to 25", "unit": "nM"},
      {"measurement": "solubility at 18 h", "setting": "[4]; [7]", "value": "10 to 25", "unit": "µM"}
    ]}
  ]
}
